{"source": "patent US12280082B2", "about": "“Formulation for inhibiting virus replication” (priority 2020, dated 2025)", "key": {"VeroE6 cells": {"test_system": "VeroE6 cells", "assay": "In vitro cytotoxicity (Hoechst 33342 / Sytox orange imaging)", "assay_type": "cell-based", "experimental": "The cytotoxicity assay was done in a 96-well plate format in 3 wells for each sample. 1×10e4 VeroE6 cells were plated per well and incubated at 37° C. overnight for the monolayer formation. Next day, cells were incubated with 1 μl (5.5 mg/ml solution in 200 μl) A. paniculate at the concentration with final DMSO conc. being 0.5%. The control cells were incubated with 0.5% DMSO only. The cells without test substance was the control for water soluble compounds. 24 and 48 hours later, cells were stained with Hoechst 33342 and Sytox orange dye. Images were taken at 10×, 16 images per well, which covers 90% of well area using ImageXpress Microconfocal (Molecular Devices). Hoechst 33342 nucleic acid stain is a popular cell-permeant nuclear counterstain that emits blue fluorescence when bound to dsDNA. It stains all the live and dead cells. Sytox orange dye stains nucleic acids in cells with compromised membranes. This stain is an indicator of cell death. First, the software will count total number of cells in the Hoechst image. In the Sytox image, it will count, among Hoechst positive cells, how many cells are positive for sytox."}, "SARS-COV2": {"test_system": "SARS-COV2", "assay": "microbe, parasite or virus in culture", "assay_type": "cell-based", "conditions": "Severe acute respiratory syndrome coronavirus 2, Vero C1008, 48 h"}}, "note": "Like-named read-outs stand apart in the source and are kept apart here.", "data": [{"smiles": "CCC(CC)COC(=O)[C@H](C)N[P@](=O)(OC[C@H]1O[C@@](C#N)(c2ccc3c(N)ncnn23)[C@H](O)[C@@H]1O)Oc1ccccc1", "note": "[Remdesivir]", "values": [{"measurement": "percentage of cell viability", "setting": "VeroE6 cells; 24th hour of treatment", "value": 99.23, "unit": "%"}, {"measurement": "percentage of cell viability", "setting": "VeroE6 cells; 48th hour of treatment", "value": 94.37, "unit": "%"}, {"measurement": "IC50", "setting": "SARS-COV2; read-out: IC50 for E gene", "value": 150, "unit": "nM"}, {"measurement": "IC50", "setting": "SARS-COV2; read-out: IC50 for N gene", "value": 110, "unit": "nM"}]}]}
